The test relates to B6C3F1 mice, B16 melanoma ip, median survival T/C. As to the kind of experiment: NCI In Vivo Anticancer Drug Screen. Data for tumor model B16 Melanoma (intraperitoneal) in B6C3F1 mice. The following applies: endpoint: median survival time, higher = longer survival. In short, it runs like this: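 Tumor-bearing mice received test compound; a separate group got vehicle only. Survival was then compared, with results reported as treated over control.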

[1] abbreviates: dose: 50.0 mg/kg/injection, schedule: Q01DX009 (ip), vehicle: saline.

“And” between values parts separate entries of the source, which are not always exact repeats. Equal entries are not always repeated. Toxic doses and inconclusive results are not listed.

As to `CC[C@@H](C)[C@@H]1NC(=O)C(NC(=O)C(CC(C)C)N(C)C(=O)C2CCCN2C(=O)C(C)O)C(C)OC(=O)C(Cc2ccc(OC)cc2)N(C)C(=O)C2CCCN2C(=O)C(CC(C)C)NC(=O)C(C)C(=O)C(C(C)C)OC(=O)C[C@H]1O` (some centres undefined), the T/C reads like this: (dose: 5.0 micrograms/kg/injection, schedule: Q01DX009 (ip), vehicle: distilled water + alcohol) 102 % of control; (dose: 10.0 micrograms/kg/injection, schedule: Q01DX009 (ip), vehicle: distilled water + alcohol) 111 % of control and 112 % of control; (dose: 10.0 micrograms/kg/injection, schedule: Q01DX009 (ip), vehicle: other) 120 % of control; (dose: 20.0 micrograms/kg/injection, schedule: Q01DX005 (ip), vehicle: other) 120 % of control; (dose: 20.0 micrograms/kg/injection, schedule: Q01DX005 (iv), vehicle: other) 105 % of control; (dose: 20.0 micrograms/kg/injection, schedule: Q01DX005 (sc), vehicle: other) 111 % of control. For the same compound, the T/C was 117 % of control and 123 % of control (dose: 20.0 micrograms/kg/injection, schedule: Q01DX009 (ip), vehicle: distilled water + alcohol); 101 % of control and 104 % of control (dose: 40.0 micrograms/kg/injection, schedule: Q01DX005 (iv), vehicle: other); 108 % of control (dose: 40.0 micrograms/kg/injection, schedule: Q01DX005 (sc), vehicle: other); 124 % of control (dose: 40.0 micrograms/kg/injection, schedule: Q01DX009 (ip), vehicle: distilled water + alcohol); 153 % of control (dose: 40.0 micrograms/kg/injection, schedule: Q01DX009 (ip), vehicle: other); 124 % of control (dose: 40.0 micrograms/kg/injection, schedule: Q03HX008 (ip), vehicle: saline). Also, the T/C reads like this: (dose: 71.0 micrograms/kg/injection, schedule: Q01DX009 (ip), vehicle: other) 151 % of control; (dose: 80.0 micrograms/kg/injection, schedule: Q01DX005 (ip), vehicle: other) 122 % of control; (dose: 80.0 micrograms/kg/injection, schedule: Q01DX005 (iv), vehicle: other) 112 % of control and 96 % of control; (dose: 80.0 micrograms/kg/injection, schedule: Q01DX005 (oral), vehicle: other) 100 % of control; (dose: 80.0 micrograms/kg/injection, schedule: Q01DX005 (sc), vehicle: other) 113 % of control and 103 % of control; (dose: 80.0 micrograms/kg/injection, schedule: Q01DX009 (ip), vehicle: distilled water + alcohol) 153 % of control. In addition, the T/C is, setting by setting: (dose: 80.0 micrograms/kg/injection, schedule: Q01DX009 (ip), vehicle: other) 163 % of control; (dose: 106.0 micrograms/kg/injection, schedule: Q01DX009 (ip), vehicle: other) 159 % of control; (dose: 160.0 micrograms/kg/injection, schedule: Q01DX001 (iv), vehicle: other) 102 % of control; (dose: 160.0 micrograms/kg/injection, schedule: Q01DX001 (sc), vehicle: other) 106 % of control; (dose: 160.0 micrograms/kg/injection, schedule: Q01DX005 (iv), vehicle: other) 104 % of control and 106 % of control; (dose: 160.0 micrograms/kg/injection, schedule: Q01DX005 (oral), vehicle: other) 119 % of control and 105 % of control. Also, the T/C (dose: 160.0 micrograms/kg/injection, schedule: Q01DX005 (sc), vehicle: other) is 110 % of control and 122 % of control; the T/C (dose: 160.0 micrograms/kg/injection, schedule: Q01DX009 (ip), vehicle: distilled water + alcohol) is 162 % of control and 164 % of control; the T/C (dose: 160.0 micrograms/kg/injection, schedule: Q01DX009 (ip), vehicle: other) is 163 % of control; the T/C (dose: 160.0 micrograms/kg/injection, schedule: Q01DX009 (ip), vehicle: saline) was 151 % of control; the T/C (dose: 320.0 micrograms/kg/injection, schedule: Q01DX001 (iv), vehicle: other) was 99 % of control and 106 % of control; the T/C (dose: 320.0 micrograms/kg/injection, schedule: Q01DX001 (oral), vehicle: other) is 99 % of control. The T/C is 102 % of control (dose: 320.0 micrograms/kg/injection, schedule: Q01DX001 (sc), vehicle: other); 123 % of control (dose: 320.0 micrograms/kg/injection, schedule: Q01DX005 (ip), vehicle: other); 104 % of control and 106 % of control (dose: 320.0 micrograms/kg/injection, schedule: Q01DX005 (iv), vehicle: other); 104 % of control and 105 % of control (dose: 320.0 micrograms/kg/injection, schedule: Q01DX005 (oral), vehicle: other); 94 % of control and 105 % of control (dose: 320.0 micrograms/kg/injection, schedule: Q01DX005 (sc), vehicle: other); 116 % of control (dose: 640.0 micrograms/kg/injection, schedule: Q01DX001 (ip), vehicle: other). The T/C is, setting by setting: (dose: 640.0 micrograms/kg/injection, schedule: Q01DX001 (iv), vehicle: other) 102 % of control and 108 % of control; (dose: 640.0 micrograms/kg/injection, schedule: Q01DX001 (oral), vehicle: other) 99 % of control; (dose: 640.0 micrograms/kg/injection, schedule: Q01DX001 (sc), vehicle: other) 117 % of control and 102 % of control; (dose: 640.0 micrograms/kg/injection, schedule: Q01DX005 (oral), vehicle: other) 100 % of control and 107 % of control; (dose: 1280.0 micrograms/kg/injection, schedule: Q01DX001 (ip), vehicle: other) 124 % of control; (dose: 1280.0 micrograms/kg/injection, schedule: Q01DX001 (ip), vehicle: saline) 117 % of control. The T/C is 118 % of control and 106 % of control (dose: 1280.0 micrograms/kg/injection, schedule: Q01DX001 (iv), vehicle: other); 103 % of control and 108 % of control (dose: 1280.0 micrograms/kg/injection, schedule: Q01DX001 (oral), vehicle: other); 118 % of control and 100 % of control (dose: 1280.0 micrograms/kg/injection, schedule: Q01DX001 (sc), vehicle: other); 97 % of control and 102 % of control (dose: 1280.0 micrograms/kg/injection, schedule: Q01DX005 (oral), vehicle: other); 114 % of control and 100 % of control (dose: 2560.0 micrograms/kg/injection, schedule: Q01DX001 (oral), vehicle: other); 112 % of control (dose: 2560.0 micrograms/kg/injection, schedule: Q01DX001 (sc), vehicle: other). Besides, the T/C (dose: 2560.0 micrograms/kg/injection, schedule: Q01DX005 (oral), vehicle: other) was 99 % of control and 100 % of control; the T/C (dose: 5120.0 micrograms/kg/injection, schedule: Q01DX001 (oral), vehicle: other) is 101 % of control and 105 % of control; the T/C (dose: 10240.0 micrograms/kg/injection, schedule: Q01DX001 (oral), vehicle: other) was 105 % of control.

Turning to `O=C1C2=C(C(=O)c3cnccc31)C1C=CC2CC1` (centres undefined), the T/C is, setting by setting: (dose: 12.5 mg/kg/injection, schedule: Q01DX009 (ip), vehicle: DMSO) 115 % of control; (dose: 25.0 mg/kg/injection, schedule: Q01DX009 (ip), vehicle: DMSO) 98 % of control; (dose: 50.0 mg/kg/injection, schedule: Q01DX009 (ip), vehicle: DMSO) 111 % of control; (dose: 100.0 mg/kg/injection, schedule: Q01DX009 (ip), vehicle: DMSO) 98 % of control.

Consider `Nc1nc(-c2ccccc2)c(Br)c(=O)[nH]1`, for which the T/C is 156 % of control and 183 % of control (dose: 50.0 mg/kg/injection, schedule: Q01DX009 (ip), vehicle: saline with Tween-80); 116 % of control (dose: 800.0 mg/kg/injection, schedule: Q01DX009 (ip), vehicle: saline with Tween-80).

Consider `Cc1c2ccccc2cc2cccc[n+]12`, for which the T/C runs as follows: (dose: 2.5 mg/kg/injection, schedule: Q01DX009 (ip), vehicle: saline) 106 % of control and 107 % of control; (dose: 5.0 mg/kg/injection, schedule: Q01DX009 (ip), vehicle: saline) 101 % of control and 104 % of control; (dose: 10.0 mg/kg/injection, schedule: Q01DX009 (ip), vehicle: saline) 102 % of control and 107 % of control; (dose: 20.0 mg/kg/injection, schedule: Q01DX009 (ip), vehicle: saline) 99 % of control and 101 % of control.

As for `CC(C)(C)OC(=O)NC(Cc1cnc[nH]1)C(=O)O` (centres undefined), the T/C by setting is: (dose: 100.0 mg/kg/injection, schedule: Q01DX009 (ip), vehicle: Klucel (hydroxypropylcellulose) (HPC)) 97 % of control; (dose: 200.0 mg/kg/injection, schedule: Q01DX009 (ip), vehicle: Klucel (hydroxypropylcellulose) (HPC)) 94 % of control; (dose: 400.0 mg/kg/injection, schedule: Q01DX009 (ip), vehicle: Klucel (hydroxypropylcellulose) (HPC)) 106 % of control.

Consider `CCCCN(CCCC)CCNc1ccc(Cl)c2oc3cc(C)ccc3c(=O)c12`, for which the T/C under setting [1] was 94 % of control and the T/C (dose: 100.0 mg/kg/injection, schedule: Q01DX009 (ip), vehicle: saline) was 87 % of control.

Take `NNc1nncc2ccccc12`: the T/C is 93 % of control (dose: 12.5 mg/kg/injection, schedule: Q01DX009 (ip), vehicle: saline); 98 % of control (dose: 25.0 mg/kg/injection, schedule: Q01DX009 (ip), vehicle: saline); 93 % of control under setting [1].

These data come from PubChem BioAssay AID200 (DTP/NCI, 2004).
